This is an account of results in patent EP0101294B1, “Composition for protecting and healing gastro-duodenal mucosa and the liver of mammals” (THE REGENTS OF THE UNIVERSITY OF CALIFORNIA, priority 1982, dated 1984).

Type in all cases: in vivo, Spraque-Dawley rats
Data set [1] deals with gastric mucosa. As to the kind of experiment: Study 1: arachidonic acid mucosal protection 3 hours after ethanol, computerized analysis of hemorrhagic area. The conditions noted are these: percent of total glandular mucosal area. The method, then:
(§1) The animals used in the examples were Spraque-Dawley rats (225 to 250 grams bodyweight). Twenty-four hours prior to the experimentation the animals were fasted in wire-bottomed cages to prevent coprophagy.
Animals were given by gavage 1 ml of either saline, or 5 mM PL solution in saline, or 1 ml of the PL-saline solution containing arachidonic acid in 30, 60 and 120 mM concentrations respectively. One-half hour or 1 hour later, 2 ml of absolute ethanol were instilled into the stomach by gavage. Three hours later the animals were sacrificed and their stomachs removed.
A camera with 100 mm macro lens was used to photograph the mucosal surface of the stomach. The same type of film and identical conditions of specimen distance from the lens, light intensity and film development were used throughout the study. Color slides were evaluated by a computerized image analysis. Each slide was converted to a black-and-white video image consisting of 65,000 points. White represented normal gastric mucosa, while gray or black represented hemorrhagic changes. […] Absolute white was given a 255 value while absolute black was given a value of 0. Boundaries delineating the glandular mucosa were drawn on the digital video image with a sonic pen. All spatial and contrast information was stored on a magnetic disk. Each glandular mucosal area was classified interactively by slicing the spectrum of mucosal values into 2 or more subgroups and by displaying the resultant simplified digital image for verification with the more complex analog photographic input. Once a classification scheme was established, a spatial rendition of the picture's point was printed and plotted to scale on paper. A summary of the computer results was also printed and included boundary values for each gray-level slice and the absolute and relative areas of each class. The areas of hemorrhagic changes were expressed as the percentage of the entire gastric glandular mucosal area.

Data set [2] deals with gastric mucosa. As to the kind of experiment: Study 2: arachidonic acid mucosal protection 15 hours after ethanol, computerized analysis of hemorrhagic area. The conditions noted are these: 1 ml 120 mM AA (37 mg) in PL intragastric 1 hour before 2 ml ethanol; evaluated 15 hours after ethanol; percent of total glandular mucosal area. How it is done:
as §1
One ml of 120 mM arachidonic acid solution (37 mg arachidonic acid) or 5 mM PI solution was instilled into the stomach 1 hour prior to the intragastric administration of 2 ml ethanol. The animals were killed 15 hours after ethanol administration and their stomachs were examined.
A camera with 100 mm macro lens was used to photograph the mucosal surface of the stomach. The same type of film and identical conditions of specimen distance from the lens, light intensity and film development were used throughout the study. Color slides were evaluated by a computerized image analysis. Each slide was converted to a black-and-white video image consisting of 65,000 points. White represented normal gastric mucosa, while gray or black represented hemorrhagic changes. […] Absolute white was given a 255 value while absolute black was given a value of 0. Boundaries delineating the glandular mucosa were drawn on the digital video image with a sonic pen. All spatial and contrast information was stored on a magnetic disk. […] The areas of hemorrhagic changes were expressed as the percentage of the entire gastric glandular mucosal area.

Data set [3] deals with gastric mucosa. Description: Study 3: intragastric versus intrajejunal arachidonic acid, pylorus ligated, ethanol-induced gastric mucosal injury. The conditions noted are these: 1 hour before 2 ml ethanol, evaluated 2 hours after ethanol. The method, then:
as §1
The next series of experiments was designed to compare the effect of intragastric to intrajejunal pretreatment with arachidonic acid on ethanol-induced gastric mucosal injury. The animals were anesthetized with nembutal (50 mg nembutal per kg body weight intraperitoneally), their abdomens were opened and either 1 ml of 120 mM arachidonic acid or 5 mM PL was installed intragastrically or 1 ml of 120 mM arachidonic acid intrajejunally with a polyethylene catheter introduced through a small duodenal incision. The pylorus was ligated immediately after solution instillation. One hour later the gastric contents were removed and 2 ml of ethanol were instilled through the catheter. The stomach was examined 2 hours later.
A camera with 100 mm macro lens was used to photograph the mucosal surface of the stomach. The same type of film and identical conditions of specimen distance from the lens, light intensity and film development were used throughout the study. Color slides were evaluated by a computerized image analysis. […] The areas of hemorrhagic changes were expressed as the percentage of the entire gastric glandular mucosal area.

Data set [4] concerns gastric mucosa. As to the kind of experiment: Histological studies of gastric mucosa (light microscopy). How it is done:
Mucosal specimens 5 mm in width were cut from the forestomach to the pylorus. The specimens were obtained (a) 60 minutes after intragastric administration of 1 ml of solution containing either saline, PL or 120 mM arachidonic acid or (b) 3 hours after intragastric instillation of 2 ml of ethanol in animals which had received 1 ml of solution containing either saline or PL or 120 mM arachidonic acid 1 hour before ethanol. Specimens were fixed in buffered 10% formalin and stained. Coded specimens were examined "blindly" by light microscopy. In the histological evaluation special attention was paid to the continuity of the surface epithelium layer, presence or absence of hemorrhagic erosions, edema of the submucosa and infiltration with polymorphonuclear neutrophils.

The subject of data set [5] is gastric mucosa. As to the kind of experiment: Scanning electron microscopy of gastric mucosa after ethanol. The conditions noted are these: 3 hours after ethanol, arachidonic acid pretreated rats. From the text: Gastric mucosal specmens, fixed in 3.5% buffered glutaraldehyde were processed routinely for scanning electronmicroscopy and evaluated in a JOEL-35 scanning electronmicroscope operated at 20 kV.

A further data set relates to PGE2. Description: PGE2 measurement in gastric contents (radioimmunoassay, bioassay). How it is done:
PGE2 was measured by direct radioimmunoassay using antisera generated in rabbits by immunization of PGE2 linked to bovine thyroglobulin. For additional confirmation of PGE2 measurements, samples were also subjected to bioassay. After addition of approximately 5000 CPM of ^3H-labeled PGE2 for recovery calculations, samples were adjusted to pH 4.3 with 0.5 M phosphate buffer and extracted twice with ethyl acetate. The organic layer was subjected to thin layer chromatography (benzene:dioxane:acetic acid, 90:60:3), and the PGE2 fraction was extracted with methanol, dried and reconstituted in 0.9% NaCl for assay. A bioassay cascade (according to Vane) was used to assay simultaneously the samples in 2 aliquot sizes and on 3 rat stomach strips. The concentration of PGE2 in the gastric contents were measured in 2 groups of rats 30 or 60 minutes following intragastric installation of 1 ml of 120 mM arachidonic acid or 1 ml PL in order to determine the extent of arachidonic acid conversion to PGE2 by the gastric mucosa. The spontaneous release of PGE2 into the gastric lumen was assessed in animals receiving PL pretreatment only. In addition, PGE2 concentration in the original 120 mM arachidonic acid solution was measured before intragastric instillation.

In data set [6] the test system is gastric mucosa. As to the kind of experiment: Study 5: arachidonic acid mucosal protection against taurocholic acid. Particulars: 1 ml 120 mM AA in PL; 3 ml 80 mM TCA in 0.1 n HCl twice; 3 hours after second TCA dose. The method, then:
as §1
Rats were given intragastric treatment by peroral tube with 1 ml of PL solution or 1 ml of PL solution containing 120 mM arachidonic acid (AA). The rats then received, intragastrically, 3 mls of a 80 mM solution of taurocholic acid (TCA) dissolved in 0.1 n in HCI, adminstered twice: one or two hours after PL or AA pretreatment. Animals were sacrificed 3 hours after second TCA administration.
Gastric mucosa was assessed macroscopically and histologically for damage in a similar manner as in studies with ethanol. […] These lesions corresponding histologically to necrotic lesions were similar to those seen after ethanol.

Data set [7] deals with gastric mucosa. Description: Study 6: arachidonic and linoleic acid mucosal protection against acetylsalicylic acid. The conditions noted are these: for Macroscopic mucosal changes (lesion index, number of lesions x severity): 1 ml 120 mM AA or 240 mM LLC in PL 1 hour before 200 mg/kg aspirin intragastrically, 4 hours after acetyl salicylic acid; for Histologic evaluation: deep necrotic lesions / Mucosa by scanning electromicroscopy: 4 hours after aspirin, 120 mM AA or 240 mM LLC pretreatment. How it is done:
as §1
Rats were given intragastric treatment by peroral tube with 1 ml of PL solution, 1 ml of PL solution containing 120 mM arachidonic acid (AA), or 1 ml of PL solution containing 240 mM linoleic acid (LLC). One hour after such treatment a suspension of 200 mg/kg bodyweight of aspirin in 0.1 n HCI containing 1% methyl cellulose was administered intragastrically in 1 ml volume. The animals were sacrified 4 hours after acetyl salicylic acid administration.
• 1) Macroscopic quantitation of mucosal changes based on scoring system estimating presence or absence of hemorrhagic lesions, their number and severity graded on arbitrary scale 1 to 4. Lesion index, expressed as an average score (number of lesionsxseverity) was estimated per each group of animals. • 2) Mucosal histology • 3) Scanning electron microscopy

Another data set deals with liver. Description: Study 7: liver protection against ethanol, electron microscopy of hepatocytes. The conditions noted are these: 1 ml 120 mM AA (37 mg) in PL by gavage 1 hour before 2.5 ml 100% ethanol; sacrificed 24 hours later. The method, then: 40 rats were given, by gavage, either 1 ml of 5 mM PL solution (as a control) or a 1 ml of 120 mM arachidonic acid in the 5 mM PL solution. One hour later the rats were given 2.5 ml of 100% ethanol and the animals sacrificed 24 hours later.
The liver was then removed and specimens fixed for 2 hours in 3.5% purified glutaraldehyde (buffered in 0.1 M phosphate of 7.4). The liver specimens were washed with buffer and postfixed in 1% osmium tetroxide at 0°C for 1 hour. After dehydration with graded ethanol the tissue was embedded in epoxy resin. Silver gray thin sections of the specimen were double stained with 2% uranyl acetate followed by lead citrate and examined with an RCA electron microscope.

For data set [8], the system named is gastric mucosa. Description: Study 4: linoleic acid mucosal protection against ethanol. The conditions noted are these: 3 hours after ethanol. The method, then:
Twenty-four hours prior to the experimentation the animals were fasted in wire-bottomed cages to prevent coprophagy.
The rats were given intragastric treatment by peroral tube 1 ml of PL solution; 1 ml of the PL solution containing 120 mM linoleic acid (LLC) or 240 mM LLC; or 1 ml of 240 mM oleic acid solubilized in 5 mM PL. […] Macroscopic and histologic mucosal changes were evaluated as in the studies with arachidonic acid.

Setting [9] is: histology 3 hours after 2 ml absolute ethanol, pretreated with 1 ml 120 mM AA+PL 1 hour before.
Where [10] appears, read: 1 ml 240 mM in 5 mM PL intragastric pretreatment.

Marks after values point to notes of the source that are not given here.

As for `CCCCC/C=C\C/C=C\C/C=C\C/C=C\CCCC(=O)O` [AA, arachidonic acid], the “Hemorrhagic area*(%)” value in the data set on gastric mucosa [1] (1 ml 30 mM AA in 5 mM PL by gavage 1 hour before 2 ml ethanol, stomach evaluated 3 hours after ethanol) came to 15.4%; in the data set with gastric mucosa [1] (1 ml 60 mM AA in 5 mM PL by gavage 1 hour before 2 ml ethanol, evaluated 3 hours after ethanol), 3.0%; in the data set with gastric mucosa [1] (1 ml 120 mM AA in 5 mM PL by gavage 1 hour before 2 ml ethanol, evaluated 3 hours after ethanol) it was 0.6%; in the data set on gastric mucosa [1] (Group E: 1 ml 120 mM AA in 5 mM PL by gavage 30 minutes before 2 ml ethanol, evaluated 3 hours after ethanol) it was 0.8%; with gastric mucosa [2] it was 0.6%; with gastric mucosa [3] (1 ml 120 mM AA intragastrically), 5.3%. Moreover, in the data set on gastric mucosa [3] (1 ml 120 mM AA intrajejunally), the “Hemorrhagic area*(%)” value stood at 28.1%. Moreover, the “Histological changes of gastric mucosa after the acid alone” value with gastric mucosa [4] (60 minutes after intragastric 1 ml 120 mM arachidonic acid, no ethanol) was “did not change the appearance of the gastric mucosa”. The “Edema of submucosa accumulation of polymorphonuclears” value in the data set on gastric mucosa [4] (setting [9]) is on record as “Present”. Besides, the Hemorrhagic erosions entry with gastric mucosa [4] (setting [9]) is listed as “Absent”. For the same compound, the “The surface epithelium layer” value with gastric mucosa [4] (setting [9]) is reported as “Present, continuous (minor focal defects seen occasionally)”. In addition, the “Mucosal surface by scanning electronmicroscopy” value with gastric mucosa [5] is “nondisrupted and normal appearance”. Further, the “values of PGE2 in the gastric content higher than in animals that received PL only” value in the data set on PGE2 (30 and 60 minutes after intragastric instillation, relative to PL group) was 5,000-13,000. Further, the “PGE2 concentration (ng/ml)” value was 7360.0* ng/ml in the data set with PGE2 (gastric contents 30 min after intragastric instillation of 1 ml 120 mM AA) and 4100.0* ng/ml with PGE2 (gastric contents 60 min after intragastric instillation of 1 ml 120 mM AA). For the same compound, the “mucosal lesions, macroscopically and histologically” value with gastric mucosa [6] was “not detectable”. Also, the “Macroscopic mucosal changes (lesion index, number of lesions x severity)” value with gastric mucosa [7] amounted to 2±0.3. Moreover, the “Histologic evaluation: deep necrotic lesions” value in the data set on gastric mucosa [7] is listed as “deep necrotic lesions did not occur”. Moreover, the “Mucosa by scanning electromicroscopy” value in the data set on gastric mucosa [7] was “nearly normal mucosa”. In the data set with liver, the “ultrastructural changes in the hepatocytes” value is on record as “most of the alcohol induced changes were virtually prevented”.

For the compound `CCCCC/C=C\C/C=C\CCCCCCCC(=O)O` [LLC, linoleic acid], the “macroscopic hemorrhagic lesions, % of glandular mucosal area” value (“macroscopic hemorrhagic lesions, %” for short) in the data set with gastric mucosa [8] (1 ml 120 mM in 5 mM PL intragastric pretreatment) is 6.5±1%. In the data set with gastric mucosa [8] (setting [10]), the “macroscopic hemorrhagic lesions, %” value is recorded as 1.3±0.5%. In addition, the “Mucosal histology: deep necrotic lesions” value with gastric mucosa [8] was “no deep necrotic lesions were present”. Further, in the data set on gastric mucosa [8] (macroscopic, group pretreated with linoleic acid), the “edema in the forestomach” value is given as “marked edema in the forestomach”. Further, in the data set on gastric mucosa [7], the “Macroscopic mucosal changes (lesion index, number of lesions x severity)” value was 8±1; the “Histologic evaluation: deep necrotic lesions” value is “deep necrotic lesions did not occur”; the “Mucosa by scanning electromicroscopy” value was “nearly normal mucosa”.

Consider `CCCCCCCC/C=C\CCCCCCCC(=O)O` [oleic acid, reference compound], for which, in the data set on gastric mucosa [8] (setting [10]), the “macroscopic hemorrhagic lesions, %” value came to 29.1±3%. Moreover, the “Mucosal histology: deep necrotic lesions” value with gastric mucosa [8] is on record as “deep hemorrhagic necrotic lesions penetrating into muscularis mucosa were present”.
